Values joined by “and” are separate entries in the source; they are usually repeats but may differ in a detail not shown here. Equal entries are not always repeated.
Tests used:
[1] = target: T1, Phosphoethanolamine N-methyltransferase 1 (Caenorhabditis elegans, UniProt Q86NB3); experiment: Radiochemical Assay; conditions: pH 8; 25 °C
T1 sequence (Q86NB3 whole entry): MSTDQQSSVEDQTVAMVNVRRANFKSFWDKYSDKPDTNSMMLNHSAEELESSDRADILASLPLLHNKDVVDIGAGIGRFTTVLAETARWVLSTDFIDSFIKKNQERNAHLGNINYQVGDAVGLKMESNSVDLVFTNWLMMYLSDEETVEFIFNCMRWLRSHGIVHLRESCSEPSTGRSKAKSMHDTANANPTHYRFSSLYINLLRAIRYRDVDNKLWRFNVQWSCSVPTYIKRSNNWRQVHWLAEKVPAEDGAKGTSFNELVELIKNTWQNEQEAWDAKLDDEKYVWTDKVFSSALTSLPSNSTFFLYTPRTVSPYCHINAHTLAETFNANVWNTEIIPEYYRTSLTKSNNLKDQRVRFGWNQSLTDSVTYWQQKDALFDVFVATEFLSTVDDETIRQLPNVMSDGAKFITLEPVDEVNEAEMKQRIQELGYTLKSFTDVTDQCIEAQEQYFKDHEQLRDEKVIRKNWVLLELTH
Description: (§1) A radiochemical assay was used to measure enzymatic activity.

[2] = target: T2, Phosphoethanolamine N-methyltransferase 2 (Caenorhabditis elegans, UniProt Q22993); experiment: Radiochemical Assay; conditions: pH 8; 25 °C
Description: as §1

[3] = target: T1, Phosphoethanolamine N-methyltransferase 1; experiment: Calorimetric (ITC) Assay; conditions: pH 7.5
Description: (§2) For standard ITC analysis of ligand binding, proteins were dialyzed overnight in 25 mm Hepes (pH 7.5), 100 mm NaCl, 5 mm -mercaptoethanol, and 5% glycerol at 4 °C. Ligands (i.e. AdoMet, AdoCys, pEA, and pCho) were prepared in the same buffer. AdoMet and AdoCys concentrations were determined spectrophotometrically (A260 nm; = 15,400 m 1 cm 1) (19). ITC experiments were performed using a VP-ITC calorimeter (Microcal, Inc.). Injections (10 ul) of ligand were added to a sample solution containing protein using a computer-controlled 250-ul microsyringe at intervals of 5 6 min.

[4] = target: T2, Phosphoethanolamine N-methyltransferase 2; experiment: Calorimetric (ITC) Assay; conditions: pH 7.5
Description: as §2

T2 sequence (Q22993 whole entry): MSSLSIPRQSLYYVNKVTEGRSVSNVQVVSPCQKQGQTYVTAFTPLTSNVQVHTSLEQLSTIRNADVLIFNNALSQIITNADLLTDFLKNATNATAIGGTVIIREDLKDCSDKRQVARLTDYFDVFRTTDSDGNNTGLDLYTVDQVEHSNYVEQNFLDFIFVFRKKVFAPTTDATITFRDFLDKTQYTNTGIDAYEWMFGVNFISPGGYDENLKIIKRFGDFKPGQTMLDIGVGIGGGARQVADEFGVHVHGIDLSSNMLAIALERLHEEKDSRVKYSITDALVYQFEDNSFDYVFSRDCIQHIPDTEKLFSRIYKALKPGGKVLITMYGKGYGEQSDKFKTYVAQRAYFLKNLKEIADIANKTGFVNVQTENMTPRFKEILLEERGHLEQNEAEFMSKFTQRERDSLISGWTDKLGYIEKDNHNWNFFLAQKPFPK

| Structure (SMILES) | IC50 [1] [µM] | IC50 [2] [µM] | Kd ([3]; 4 °C) | Kd ([3]; 5 °C) [µM] | Kd ([3]; 10 °C) [µM] | Kd ([3]; 15 °C) [µM] | Kd ([3]; 20 °C) [µM] | Kd ([3]; 25 °C) [µM] | further results |
| --- | --- | --- | --- | --- | --- | --- | --- | --- | --- |
| Nc1c2c(nc3ccccc13)CCCC2 | 23400 | 3500 |  |  |  |  |  |  |  |
| C[S+](CC[C@H](N)C(=O)[O-])C[C@H]1O[C@@H](n2cnc3c(N)ncnc32)[C@H](O)[C@@H]1O (stereo partly drawn) [(2S)-2-amino-4-({[(2S,3S,4R,5R)-5-(6-amino-9H-purin-9-yl)-3,4-dihydroxyoxolan-2-yl]methyl}(methyl)sulfanylium)butanoate] |  |  | 47.2 µM and 19.1 µM and 10.7 µM and 5.8 µM | 6.1 | 8.2 | 11.4 | 16.6 | 26.7 |  |
| Nc1ncnc2c1ncn2[C@H]1O[C@@H](CSCC[C@@H](N)C(=O)O)[C@H](O)[C@@H]1O [AdoCys] |  |  | 2.9 µM and 2.2 µM and 1.3 µM and 0.9 µM | 0.7 | 0.8 | 1.1 | 1.6 | 2.5 | Kd ([4]; 4 °C): 8.6 µM and 6 µM and 9.3 µM and 6.1 µM; Kd ([4]; 5 °C): 2 µM; Kd ([4]; 10 °C): 2.5 µM; Kd ([4]; 15 °C): 3 µM; Kd ([4]; 20 °C): 4.2 µM; Kd ([4]; 25 °C): 5.4 µM |
| CCN(CC)Cc1cc(Nc2ccnc3cc(Cl)ccc23)ccc1O [Amodiaquin] | 3400 | 3100 |  |  |  |  |  |  |  |
| Nc1ncnc2c1ncn2[C@@H]1O[C@H](C[C@@H](N)CC[C@H](N)C(=O)O)[C@@H](O)[C@H]1O [Sinefungin] | 33.8 | 91.5 |  |  |  |  |  |  |  |
| CCCCCCCCCCCCCCCCOP(=O)([O-])OCC[N+](C)(C)C [n-hexadecylphosphocholine] | 125 | 12.5 |  |  |  |  |  |  |  |

— BindingDB's records for doi:10.1074/jbc.M111.290619 (Washington University, 2011)
